Experimental data taken from paper PMC9161616, “A first-in-human phase 1/2 study of FGF401 and combination of FGF401 with spartalizumab in patients with hepatocellular carcinoma or biomarker-selected solid tumors” (Journal of Experimental & Clinical Cancer Research : CR, 2022).

Tests used:
[1] = test system: HCC or other solid tumors expressing FGFR4 and KLB; test: Antitumor activity per RECIST v1.1, FGF401 single agent; assay type: in vivo, human
Description: The primary endpoint for the phase 1 parts was the incidence of DLTs evaluated. The probability of DLTs during the evaluation period was estimated for patients in the dose determining set (DDS) for each treatment arm, FGF401 single agent and FGF401 + spartalizumab combination, to estimate respective MTDs. DDS for the phase 1 single agent or combination comprised safety set patients who either experienced a DLT or had confirmation by both the sponsor and investigators that no DLT occurred during the first cycle, C1 (first 2 cycles: C1, C2) based on at least 66% of planned doses administered in C1 (C1 and C2) with a minimum of 21 (42) days of observation following the first dose. For phase 2, the primary efficacy endpoint to investigate the antitumor activity of FGF401 included time to tumor progression assessed in groups 1 and 2, and overall response rate (ORR) in group 3 based on local assessment per Response Evaluation Criteria in Solid Tumors (RECIST) v1.1.
Antitumor activity was locally assessed as per RECIST v1.1 and immune-related response criteria (irRC) (only for combination arm) and evaluated using the following endpoints: best overall response, overall response rate (ORR), disease control rate (DCR), time to tumor progression, and overall survival (OS). Estimation of best overall response (BOR) was based on assessments collected no later than 30 days after the last study treatment administration date for RECIST v1.1 and 150 days for irRC.
The primary and secondary efficacy outcomes were analyzed in the full analysis set according to the assigned treatment stratified by study group, which we defined as a subgroup (fast/fed, group 1/2/3) of patients who were administered with similar dose levels on a given treatment arm and phase. The results have been presented as per RECIST v1.1. The number of patients having BOR was provided along with ORR and DCR with 95% exact binomial CIs (Clopper-Pearson). Waterfall plots for the phase 1 parts depicted the best percentage change from baseline in sum of longest diameters (SOD). […] The estimate at a given time point was the estimated probability that a patient would remain event free up to that time point. A positive trend regarding the activity of FGF401 in groups 1 and 2 was concluded if the observed lower limit of their respective 90% CI was no less than their expected median TTPs of 1.5 months and 2.2 months estimated in the absence of FGF401. KM plots were also used to estimate OS rate with one-sided 95% CI at 3 months, 5 months, 7 months, and 9 months for single agent phase 1 overall and phase 2: groups 1, 2; for single agent phase 2 – group 3, OS, and progression free survival (PFS) were calculated regardless of RP2D but for overall tumor type.
Exploratory biomarker analyses were conducted using full analysis set to assess efficacy and FGF19 signaling inhibition associated with FGF401. The best tumor percentage change from baseline as per RECIST v1.1 were investigated by FGF19 status (positive/negative) as determined through RT-qPCR and IHC assay. An evaluable RT-qPCR sample was considered FGF19+ if mean threshold cycle for FGF19 was ≤35, and FGF19- otherwise. Among the patients with evaluable IHC assay samples, those who had % cellular positivity > 0 were considered FGF19 + .

[2] = test system: CYP7A1 and DUSP6 transcript levels in tumor biopsies; test: Tumor biopsy RNAseq pharmacodynamics; assay type: in vivo, human
Protocol: Additionally, exploratory biomarker endpoints to assess FGF19-FGFR4 signaling inhibition by FGF401 included temporal profiling of C4, FGF19, total bile acid and total cholesterol levels in blood, and CYP7A1 and DUSP6 transcript levels in tumor biopsies. An immunohistochemistry (IHC) assay to detect FGF19 was used retrospectively on remnant samples and the association of FGF19 expression levels with best change in sum of diameters (SOD) for RECIST v1.1 in the single-agent was evaluated.
For RNAseq based studies, extracted total RNA was depleted from ribosomal RNA using RNAseH. The rRNA-depleted sample was then prepared for sequencing using the TruSeq RNA v.2 Library Preparation kit (Illumina). After pooling the captured library using unique adapter index sequences and applying the pool to a sequencing flow cell, they were sequenced using Illumina v.4 chemistry and paired-end 100-bp reads. Sequence data were aligned to the reference human genome (build hg19) using STAR v.2.4.0e. Mapped reads were then used to quantify transcripts with HTSeq v.0.6.1p1 [28] and RefSeq GRCh38 v.82 gene annotation. Gene expression data were normalized using the trimmed mean of M-value normalization as implemented in the edgeR – Bioconductor package v.3.20.9 [29].

phospho-FGFR4 = conditions: preclinical; read-out: in vivo phospho-FGFR4 IC90; cited from earlier work
[3] = test system: HCC and gastric cancer cell lines expressing FGFR4, KLB and FGF19; conditions: excellent selectivity over non-sensitive tumor models; cited from earlier work
[4] = single agent, phase I and phase II in total
[5] = most on-treatment biopsies obtained at C1D8

With `COCCNc1cc(NC(=O)N2CCCc3cc(CN4CCN(C)CC4=O)c(C=O)nc32)ncc1C#N` [FGF401, roblitinib] the “median TTP” value ([1]; 120 mg, phase 1, fed and fasted combined, N = 45) was 2.63 months, the “median OS” value ([1]; 120 mg, phase 1, fed and fasted combined, n/N = 38/45) was 5.72 months and the “patients reporting PR at RP2D in phase 2” value ([1]; all in patients with HCC) was 4 patients. The “response by FGF19 IHC status” value ([1]; patients with HCC, phase 1/2, 27 FGF19 positive, 33 negative) was “trend for better response among the FGF19 IHC-positive patients”, the “responses in patients with other tumor types” value ([1]; phase 1) was “no responses” and the “partial response (PR)” value ([1]; phase 1, 59 evaluable patients with HCC, 80 mg fasted, 80 mg fed, 150 mg fasted, each) was 3 patients. For the same compound, the “complete response (CR)” value ([1]; phase 1, 59 evaluable patients with HCC, 120 mg, fasted) was 1 patient, the “probability estimate of remaining event free (90% CI) at 9 months” value ([1]; phase 2 group 1) was 30.4 [19.1, 100] and the PR ([1]; phase 2 group 1 (n = 28), 120 mg qd) was 2 patients. For the same compound, the “probability estimate of remaining event free (90% CI) at 9 months” value ([1]; phase 2 group 2) was 61.5 (49.8, 100), the PR ([1]; phase 2 group 2 (n = 31), 120 mg qd) was 2 patients and the “probability estimate of remaining event free (90% CI) at 9 months” value ([1]; phase 2 group 3) was 24.7 [12.6, 100]. The CR [1, 4] was 1 patients, the PR [1, 4] was 7 patients and the “patients with objective responses” value [1, 4] was 8 patients. The “association of FGF19 transcript level (RT-qPCR) with response” value ([1]; single-agent arm, prescreening biopsy) was “no clear association with response”, the “CYP7A1 transcript in on-treatment versus pretreatment biopsies” value [2, 5] was “upregulation” and the “DUSP6 transcript in on-treatment versus pretreatment biopsies” value [2, 5] was “downregulation”. The “changes in immune infiltration after FGF401 treatment” value ([2]; signatures summarized with GSVA) was “did not observe significant changes”, the IC90 (phospho-FGFR4) was 52.1 nM and the “growth of cell lines” value [3] was “inhibits growth”.
